The results in this text go back to ChEMBL document CHEMBL1150330, “Muscarinic antagonists with multiple stereocenters: Synthesis, affinity profile and functional activity of isomeric 1-methyl-2-(2,2-alkylaryl-1,3-oxathiolan-5-yl)pyrrolidine sulfoxide derivatives” (Bioorg Med Chem, 2008).

Structures are written as SMILES. Where only a bound is given, the exact number is not on record here.

The target in experiment [1] is T1, Muscarinic acetylcholine receptor M5 (Homo sapiens, UniProt P08912).
T1 sequence (P08912 whole entry): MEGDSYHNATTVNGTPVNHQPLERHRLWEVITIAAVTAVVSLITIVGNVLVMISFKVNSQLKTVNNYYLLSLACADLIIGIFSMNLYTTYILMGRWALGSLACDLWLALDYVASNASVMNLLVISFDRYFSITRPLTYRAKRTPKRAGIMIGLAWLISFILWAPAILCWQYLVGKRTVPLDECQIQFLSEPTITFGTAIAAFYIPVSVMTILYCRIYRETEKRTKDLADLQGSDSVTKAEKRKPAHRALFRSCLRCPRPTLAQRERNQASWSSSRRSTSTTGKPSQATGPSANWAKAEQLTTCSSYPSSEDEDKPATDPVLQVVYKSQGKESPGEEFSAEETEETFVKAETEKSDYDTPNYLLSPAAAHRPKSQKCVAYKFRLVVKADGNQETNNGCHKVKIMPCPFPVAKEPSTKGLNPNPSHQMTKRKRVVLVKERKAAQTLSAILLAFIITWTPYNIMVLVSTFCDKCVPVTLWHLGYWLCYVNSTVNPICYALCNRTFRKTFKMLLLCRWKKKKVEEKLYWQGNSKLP
Nature of the experiment: Displacement of [3H]NMS from human muscarinic M5 receptor expressed in CHO cells. Type of experiment: cell-based. A general note: Displacement assays read how much labelled ligand stays bound in the presence of the test substance.

In experiment [2] the target is T2, Muscarinic acetylcholine receptor M4 (Homo sapiens, UniProt P08173).
T2 sequence (P08173 whole entry): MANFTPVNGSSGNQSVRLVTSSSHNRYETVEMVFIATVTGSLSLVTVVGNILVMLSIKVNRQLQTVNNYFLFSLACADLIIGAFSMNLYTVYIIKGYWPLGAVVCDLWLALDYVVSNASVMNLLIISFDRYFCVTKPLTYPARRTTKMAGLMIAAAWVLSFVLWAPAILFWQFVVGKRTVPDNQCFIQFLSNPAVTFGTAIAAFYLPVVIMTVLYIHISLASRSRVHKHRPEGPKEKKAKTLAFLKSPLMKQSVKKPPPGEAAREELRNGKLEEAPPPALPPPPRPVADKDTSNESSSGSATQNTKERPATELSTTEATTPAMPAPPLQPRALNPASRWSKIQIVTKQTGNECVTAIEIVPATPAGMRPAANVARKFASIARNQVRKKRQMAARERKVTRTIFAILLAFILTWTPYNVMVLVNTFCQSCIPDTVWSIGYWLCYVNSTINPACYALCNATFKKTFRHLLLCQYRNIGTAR
In words: Displacement of [3H]NMS from human muscarinic M4 receptor expressed in CHO cells. The class given is cell-based.

Experiment [3] deals with Muscarinic acetylcholine receptor M3 (Homo sapiens, UniProt P20309). In words: Displacement of [3H]NMS from human muscarinic M3 receptor expressed in CHO cells. The class given is cell-based.
For experiment [4], the target named is T3, Muscarinic acetylcholine receptor M1 (Homo sapiens, UniProt P11229).
T3 sequence (P11229 whole entry): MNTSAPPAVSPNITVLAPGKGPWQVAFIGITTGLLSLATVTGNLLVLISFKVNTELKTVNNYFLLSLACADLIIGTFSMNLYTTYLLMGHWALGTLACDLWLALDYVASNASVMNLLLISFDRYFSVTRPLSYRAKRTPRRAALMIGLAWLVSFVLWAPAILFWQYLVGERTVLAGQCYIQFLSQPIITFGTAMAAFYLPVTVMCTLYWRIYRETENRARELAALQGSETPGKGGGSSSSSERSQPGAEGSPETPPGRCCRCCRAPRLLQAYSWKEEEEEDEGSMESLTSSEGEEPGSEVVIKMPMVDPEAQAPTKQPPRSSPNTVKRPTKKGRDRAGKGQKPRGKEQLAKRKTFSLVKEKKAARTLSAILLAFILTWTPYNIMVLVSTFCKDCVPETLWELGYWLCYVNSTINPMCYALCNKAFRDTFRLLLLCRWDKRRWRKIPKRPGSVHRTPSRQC
Nature of the experiment: Displacement of [3H]NMS from human muscarinic M1 receptor expressed in CHO cells. Type of experiment: cell-based.

Experiment [5] is described as follows: Antagonist activity against muscarinic M2 receptor in guinea pig atria assessed as effect on electrically-stimulated atria. Type of experiment: functional, Cavia porcellus.
For experiment [6], the target named is T4, Muscarinic acetylcholine receptor M2 (Homo sapiens, UniProt P08172).
T4 sequence (P08172 whole entry): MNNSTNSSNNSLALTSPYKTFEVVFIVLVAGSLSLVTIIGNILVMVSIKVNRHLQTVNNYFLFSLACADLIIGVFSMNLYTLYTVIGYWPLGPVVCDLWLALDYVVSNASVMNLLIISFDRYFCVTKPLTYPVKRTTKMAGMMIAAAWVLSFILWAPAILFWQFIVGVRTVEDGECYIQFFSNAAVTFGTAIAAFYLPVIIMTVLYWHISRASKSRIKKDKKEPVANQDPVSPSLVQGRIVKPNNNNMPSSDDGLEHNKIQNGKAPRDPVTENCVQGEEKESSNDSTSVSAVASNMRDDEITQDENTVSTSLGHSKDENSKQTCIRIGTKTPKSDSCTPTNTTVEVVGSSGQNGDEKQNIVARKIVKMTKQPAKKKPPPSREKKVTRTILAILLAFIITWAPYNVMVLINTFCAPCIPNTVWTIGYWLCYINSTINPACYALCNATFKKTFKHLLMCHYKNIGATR
Nature of the experiment: Displacement of [3H]NMS from human muscarinic M2 receptor expressed in CHO cells. The class given is cell-based.

Experiment [7] in a line: Antagonist activity against muscarinic M3 receptor in guinea pig ileum assessed as effect on ileum tension. The class given is functional, Cavia porcellus.
The nature of experiment [8]: Antagonist activity against muscarinic M4 receptor in guinea pig lung strip assessed as effect on electrically-stimulated contraction. The class given is functional, Cavia porcellus.

Chain of Muscarinic acetylcholine receptor M3 (P20309 whole entry): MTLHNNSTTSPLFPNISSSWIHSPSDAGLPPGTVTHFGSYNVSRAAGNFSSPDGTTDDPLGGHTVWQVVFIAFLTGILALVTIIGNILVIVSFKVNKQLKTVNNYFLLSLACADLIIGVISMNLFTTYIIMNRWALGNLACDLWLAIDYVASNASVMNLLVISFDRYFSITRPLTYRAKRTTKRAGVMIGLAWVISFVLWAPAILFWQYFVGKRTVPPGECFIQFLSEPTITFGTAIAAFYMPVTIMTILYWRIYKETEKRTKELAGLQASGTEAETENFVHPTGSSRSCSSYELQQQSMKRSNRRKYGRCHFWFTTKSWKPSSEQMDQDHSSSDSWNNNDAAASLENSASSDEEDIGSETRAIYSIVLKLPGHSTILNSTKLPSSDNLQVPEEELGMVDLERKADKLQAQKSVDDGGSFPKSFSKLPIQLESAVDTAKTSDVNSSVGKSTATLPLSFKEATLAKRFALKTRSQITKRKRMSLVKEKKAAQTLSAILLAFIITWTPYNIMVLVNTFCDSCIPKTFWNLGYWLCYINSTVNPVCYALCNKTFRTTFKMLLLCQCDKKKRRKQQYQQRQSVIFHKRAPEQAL

In the case of `CN1CCC[C@@H]1[C@@H]1C[S+]([O-])[C@](c2ccccc2)(C2CCCCC2)O1` (stereo in doubt; (-)-7), the inhibition constant (Ki) in experiment [1] was 58.9 nM; in experiment [2], 42.7 nM; in experiment [3], 42.7 nM; in experiment [4] it was 14.1 nM; in experiment [6] it was 4.17 nM. Moreover, the pKb in experiment [5] came out at 9.37; in experiment [7], 8.71; in experiment [8], 6.92.

Turning to `CN1CCC[C@H]1[C@H]1C[S+]([O-])[C@](c2ccccc2)(C2CCCCC2)O1` (stereo in doubt; (-)-8), the Ki in experiment [1] was 759 nM; in experiment [2], 1510 nM; in experiment [3] it was 692 nM; in experiment [4] it was 537 nM; in experiment [6], 1450 nM. Also, the negative-log Kb (pKb) in experiment [5] is listed as 5.71; in experiment [7] it was 5.95; in experiment [8], 5.19.

On to `CN1CCC[C@H]1[C@H]1C[S+]([O-])C(c2ccccc2)(c2ccccc2)O1` (stereo in doubt; (+)-4), for which the Ki in experiment [1] was 513 nM; in experiment [2] it was 1020 nM; in experiment [3] it was 468 nM; in experiment [4] it was 110 nM; in experiment [6], 562 nM. The results for the negative logarithm of the Kb (pKb) in experiment [5], in experiment [7] and in experiment [8] were 6, 6.55 and 5.29, respectively.

Consider `C[N+]1(C)CCC[C@@H]1[C@@H]1C[S+]([O-])[C@@](c2ccccc2)(C2CCCCC2)O1.[I-]` (stereo in doubt; (+)-15), for which the Ki in experiment [1] is 224 nM; in experiment [2], 302 nM; in experiment [3], 162 nM; in experiment [4], 93.3 nM; in experiment [6], 77.6 nM. In addition, the pKb turned out to be 6.97 in experiment [5], 7.1 in experiment [7] and 6.48 in experiment [8].

Take `CN1CCC[C@@H]1[C@@H]1C[S+]([O-])C(c2ccccc2)(c2ccccc2)O1` (stereo in doubt; (+)-5): the Ki in experiment [1] was 339 nM; in experiment [2], 316 nM; in experiment [3], 282 nM; in experiment [4] it was 110 nM; in experiment [6] it was 39.8 nM. Further, the results for the negative-log Kb (pKb) in experiment [5], in experiment [7] and in experiment [8] were 7.1, 7.17 and 5.63, respectively.

Regarding `CN1CCC[C@@H]1[C@@H]1C[S+]([O-])[C@@](c2ccccc2)(C2CCCCC2)O1` (stereo in doubt; (+)-9), the Ki in experiment [1] was 288 nM; in experiment [2], 257 nM; in experiment [3], 200 nM; in experiment [4], 107 nM; in experiment [6], 38 nM. For the same compound, the figures for the pKb in experiment [5], in experiment [7] and in experiment [8] were 7.72, 7.59 and 6.16, respectively.

Consider `CN1CCC[C@H]1[C@H]1C[S+]([O-])C(c2ccccc2)(c2ccccc2)O1` (stereo in doubt; (-)-5), for which the inhibition constant (Ki) in experiment [1] was 229 nM; in experiment [2], 407 nM; in experiment [3] it was 302 nM; in experiment [4] it was 145 nM; in experiment [6] it was 219 nM. Further, the negative logarithm of the Kb (pKb) in experiment [5] was 6.42; in experiment [7], 6.99; in experiment [8], less than 5.

As for `C[N+]1(C)CCC[C@H]1[C@H]1C[S+]([O-])[C@](c2ccccc2)(C2CCCCC2)O1.[I-]` (stereo in doubt; (-)-14), the Ki in experiment [1] is 331 nM; in experiment [2] it was 603 nM; in experiment [3], 324 nM; in experiment [4] it was 155 nM; in experiment [6], 550 nM. Further, the negative logarithm of the Kb (pKb) in experiment [5] was 6.03; in experiment [7], 6.68; in experiment [8], 5.24.

For the compound `CN1CCC[C@H]1[C@H]1C[S+]([O-])[C@](c2ccccc2)(C2CCCCC2)O1` (stereo in doubt; (-)-9), the inhibitory constant (Ki) is 380 nM in experiment [1]; 501 nM in experiment [2]; 347 nM in experiment [3]; 93.3 nM in experiment [4]; 302 nM in experiment [6]. Besides, the pKb in experiment [5] is on record as 6.59; in experiment [7] it was 7.1; in experiment [8], 5.13.

`C[N+]1(C)CCC[C@H]1[C@H]1C[S+]([O-])[C@@](c2ccccc2)(C2CCCCC2)O1.[I-]` (stereo in doubt; (+)-12): the Ki in experiment [1] was 23.4 nM; in experiment [2], 58.9 nM; in experiment [3], 26.9 nM; in experiment [4], 12 nM; in experiment [6] it was 70.8 nM. Further, the figures for the negative logarithm of the Kb (pKb) in experiment [5], in experiment [7] and in experiment [8] were 6.57, 7.03 and 5.41, respectively.

Turning to `C[N+](C)(C)C[C@@H]1C[S@](=O)[C@@](c2ccccc2)(C2CCCCC2)O1.[I-]`, the Ki in experiment [1] was 141 nM; in experiment [2] it was 95.5 nM; in experiment [3] it was 34.7 nM; in experiment [4], 21.9 nM; in experiment [6], 74.1 nM. The figures for the negative logarithm of the Kb (pKb) in experiment [5], in experiment [7] and in experiment [8] were 7.52, 7.64 and 5.24, respectively.

Regarding `CN1CCC[C@@H]1[C@@H]1C[S+]([O-])[C@@](c2ccccc2)(C2CCCCC2)O1` (stereo in doubt; (+)-8), the inhibition constant Ki in experiment [1] is 30.2 nM; in experiment [2] it was 93.3 nM; in experiment [3], 24 nM; in experiment [4], 38 nM; in experiment [6] it was 66.1 nM. The values for the pKb in experiment [5], in experiment [7] and in experiment [8] were 7.05, 7.71 and less than 5, respectively.

For the compound `C[N+]1(C)CCC[C@H]1[C@H]1C[S+]([O-])[C@](c2ccccc2)(C2CCCCC2)O1.[I-]` (stereo in doubt; (-)-15), the Ki is 41.7 nM in experiment [1]; 112 nM in experiment [2]; 77.6 nM in experiment [3]; 19.5 nM in experiment [4]; 57.5 nM in experiment [6]. For the same compound, the negative logarithm of the Kb (pKb) in experiment [5] is on record as 6.92; in experiment [7], 7.9; in experiment [8], 5.64.

For the compound `CN1CCC[C@@H]1[C@@H]1C[S+]([O-])C(c2ccccc2)(c2ccccc2)O1` (stereo in doubt; (-)-4), the inhibition constant (Ki) is 355 nM in experiment [1]; 513 nM in experiment [2]; 513 nM in experiment [3]; 74.1 nM in experiment [4]; 229 nM in experiment [6]. Besides, the values for the pKb in experiment [5], in experiment [7] and in experiment [8] were 7.27, 6.95 and 5.75, respectively.

For `C[N+]1(C)CCC[C@@H]1[C@@H]1C[S+]([O-])[C@@](c2ccccc2)(C2CCCCC2)O1.[I-]` (stereo in doubt; (+)-14), the inhibition constant (Ki) in experiment [1] is 14.1 nM; in experiment [2], 19.1 nM; in experiment [3], 6.92 nM; in experiment [4], 6.92 nM; in experiment [6], 21.4 nM. In addition, the pKb in experiment [5] was determined as 7.98; in experiment [7], 9; in experiment [8] it was 7.59.

Broadly, the Ki is the dissociation constant of the complex between target and ligand, obtained from inhibition or displacement. Lower therefore signals higher affinity. Usually pKb stands for the negative decadic logarithm of the Kb, by convention in mol/L.
